From EP4610269A1, “UROKINASE PLASMINOGEN ACTIVATOR SURFACE RECEPTOR (UPAR) LIGANDS FOR DIAGNOSTIC OR THERAPEUTIC USE” (3B Pharmaceuticals GmbH, priority 2024, dated 2025)
Where a SMILES comes first, the peptide text is derived from it. Bridges are numbered along the chain shown (N, C = ends). Side-chain parts run from the residue outwards. [ ]: non-standard residue; d: D form. The star is where a group is joined. DOTA = O=C(O)CN1CCN(CC(=O)O)CCN(CC(=O)*)CCN(CC(=O)O)CC1; X5 = O=C(O)CN1CCN(CC(=O)O)CCN([C@H](CCC(=O)*)C(=O)O)CC1; Pro(cis-4-F) = O=C(O)[C@@H]1C[C@H](F)CN1; Phe(2-Cl) = N[C@@H](Cc1ccccc1Cl)C(=O)O; Dopa = N[C@@H](Cc1ccc(O)c(O)c1)C(=O)O; Hyp = O=C(O)[C@@H]1C[C@@H](O)CN1; Gly(cBu) = N[C@H](C(=O)O)C1CCC1; Pentanoyl(4-Me) = CC(C)CCC(=O)*; Cit = NC(=O)NCCC[C@H](N)C(=O)O; Butoxycarbonyl = CCCCOC(=O)*; Aze = O=C(O)[C@@H]1CCN1; Dab = NCC[C@H](N)C(=O)O; Nva = CCC[C@H](N)C(=O)O; Abu = CC[C@H](N)C(=O)O; Dap = NC[C@H](N)C(=O)O; Pentanoyl = CCCCC(=O)*; AEEA = NCCOCCOCC(=O)O; Aib = CC(C)(N)C(=O)O

Columns and labels:
[1] = molecular target: T1, uPAR-expressing HEC-265 human endometrial adenocarcinoma cells (Homo sapiens, UniProt Q03405); assay: Competitive FACS binding assay; conditions: pIC50 category of FACS binding
T1 construct: Cell surface uPAR-expressing HEC-265 human endometrial adenocarcinoma cells; host or cells: HEC-265
T1 sequence (Q03405 23-335): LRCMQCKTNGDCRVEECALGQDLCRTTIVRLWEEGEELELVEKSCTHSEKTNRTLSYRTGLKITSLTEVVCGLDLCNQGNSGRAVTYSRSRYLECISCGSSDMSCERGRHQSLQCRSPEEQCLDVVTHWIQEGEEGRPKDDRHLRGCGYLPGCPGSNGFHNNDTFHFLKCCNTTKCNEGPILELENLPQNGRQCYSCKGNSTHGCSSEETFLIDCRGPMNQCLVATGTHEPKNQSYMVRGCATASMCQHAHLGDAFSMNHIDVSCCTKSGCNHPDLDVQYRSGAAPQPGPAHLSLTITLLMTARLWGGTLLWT
Procedure, shortened: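 Competitive displacement of a 10 nM biotinylated peptide from HEC-265 cells (1 h, 4 °C, PBS/1% BSA), detected via APC-streptavidin by flow cytometry. pIC50 from four-parameter logistic fit of median fluorescence versus concentration.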

human uPAR (uPAR-Fc) = molecular target: T2, human uPAR (uPAR-Fc) (Homo sapiens, UniProt Q03405); assay: Surface plasmon resonance (SPR) assay, single cycle kinetics; type: binding; conditions: pKD category for uPAR SPR activity assay; uPAR-Fc on Protein A-Chip, single cycle kinetics, 25°C; read-out: pKD CAT (converted)
T2 construct: comprising amino acids Leu23-Arg303 according to UniProt entry Q03405.1; purchased R&D Systems 10378-UK-100
T2 sequence (Q03405 23-303): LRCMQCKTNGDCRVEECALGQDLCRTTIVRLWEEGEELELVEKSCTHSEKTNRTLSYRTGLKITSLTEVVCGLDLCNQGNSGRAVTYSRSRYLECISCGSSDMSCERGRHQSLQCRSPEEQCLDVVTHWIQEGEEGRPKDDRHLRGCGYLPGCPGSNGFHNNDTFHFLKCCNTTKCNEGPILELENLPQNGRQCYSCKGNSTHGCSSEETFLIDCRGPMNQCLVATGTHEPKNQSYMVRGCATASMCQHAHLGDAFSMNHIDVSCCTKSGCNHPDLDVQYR
Procedure, shortened: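 uPAR-Fc (Leu23-Arg303 extracellular domains, human IgG1 Fc) captured on Protein A chip to ~2000 RU; single-cycle kinetics at 25°C in HEPES running buffer pH 7.4 with 0.1% DMSO. KD from double-referenced sensorgrams fitted to 1:1 Langmuir model, reported as pKD.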

IC50 [1] [nM] | Kd (human uPAR (uPAR-Fc)) [nM] | SMILES
≤ 10 | < 1.58 | CC[C@H](C)[C@@H]1NC(=O)[C@@H](C)NC(=O)[C@@H]2CCCN2C(=O)[C@H](Cc2ccccc2)NC(=O)[C@H](Cc2ccc(O)cc2)NC(=O)[C@H](CCCNC(N)=O)NC(=O)[C@H](CCCNC(N)=O)NC(=O)[C@@H](NC(=O)CCC(C)C)CSSC[C@@H](C(N)=O)NC(=O)[C@H](CC(C)C)NC1=O [UPAR-445, iHex-[Cys-Cit-Cit-Tyr-Phe-Pro-ala-Ile-Leu-Cys]-NH2] ({Pentanoyl(4-Me)}-C[Cit][Cit]YFP[dA]ILC-NH2; disulfide 1-10)
≤ 10 | < 1.58 | CC[C@H](C)[C@@H]1NC(=O)[C@@H]2CCN2C(=O)[C@@H]2CCCN2C(=O)[C@H](Cc2ccccc2)NC(=O)[C@H](Cc2ccc(O)cc2)NC(=O)[C@H](CCC(N)=O)NC(=O)[C@H](CCCNC(N)=O)NC(=O)[C@@H](NC(=O)CCC(C)C)CSSC[C@@H](C(N)=O)NC(=O)[C@H](CC(C)C)NC1=O [UPAR-446, iHex-[Cys-Cit-Gln-Tyr-Phe-Pro-Aze-Ile-Leu-Cys]-NH2] ({Pentanoyl(4-Me)}-C[Cit]QYFP[Aze]ILC-NH2; disulfide 1-10)
≤ 10 | < 1.58 | CCCCC(=O)N[C@H]1CSSC[C@@H](C(N)=O)NC(=O)[C@H](CCC)NC(=O)[C@H](Cc2ccccc2)NC(=O)[C@@H]2C[C@@H](O)CN2C(=O)[C@@H]2CCCN2C(=O)[C@H](Cc2ccccc2)NC(=O)[C@H](Cc2ccc(O)cc2)NC(=O)[C@H](CCC(N)=O)NC(=O)[C@H](CCCNC(=N)N)NC1=O [UPAR-447, Pent-[Cys-Arg-Gln-Tyr-Phe-Pro-Hyp-Phe-Nva-Cys]-NH2] (Pentanoyl-CRQYFP[Hyp]F[Nva]C-NH2; disulfide 1-10)
≤ 10 | < 1.58 | CCCCC(=O)N[C@H]1CSSC[C@@H](C(N)=O)NC(=O)[C@H](CCC)NC(=O)[C@H]([C@@H](C)CC)NC(=O)[C@@H]2C[C@@H](O)CN2C(=O)[C@@H]2CCCN2C(=O)[C@H](Cc2ccccc2)NC(=O)[C@H](Cc2ccc(O)cc2)NC(=O)[C@H](CCCCN)NC(=O)[C@H](CCCNC(=N)N)NC1=O [UPAR-448, Pent-[Cys-Arg-Lys-Tyr-Phe-Pro-Hyp-Ile-Nva-Cys]-NHz] (Pentanoyl-CRKYFP[Hyp]I[Nva]C-NH2; disulfide 1-10)
≥ 126 | 1.58 to 10 | CC[C@H](C)[C@@H]1NC(=O)[C@@H](C)NC(=O)[C@@H]2CCCN2C(=O)[C@H](Cc2ccccc2)NC(=O)[C@H](Cc2ccc(O)cc2)NC(=O)[C@H](CCC(N)=O)NC(=O)[C@H](CCCNC(=N)N)NC(=O)[C@@H](NC(=O)CCC(C)C)CSSC[C@@H](C(=O)NCCOCCOCC(=O)N[C@@H](CCCCNC(=O)CN2CCN(CC(=O)O)CCN(CC(=O)O)CCN(CC(=O)O)CC2)C(N)=O)NC(=O)[C@H](CC(C)C)NC1=O [UPAR-449, iHex-[Cys-Arg-Gln-Tyr-Phe-Pro-ala-Ile-Leu-Cys]-O2Oc-Lys(DOTA)-NH2] ({Pentanoyl(4-Me)}-CRQYFP[dA]ILC[AEEA]K(DOTA)-NH2; disulfide 1-10)
≤ 10 | < 1.58 | CCCCC(=O)N[C@H]1CSSC[C@@H](C(N)=O)NC(=O)[C@H](CCC)NC(=O)[C@H]([C@@H](C)CC)NC(=O)[C@@H]2C[C@@H](O)CN2C(=O)[C@@H]2CCCN2C(=O)[C@H](Cc2ccccc2Cl)NC(=O)[C@H](Cc2ccc(O)cc2)NC(=O)[C@H](CCCCNC(=O)CN2CCN(CC(=O)O)CCN(CC(=O)O)CCN(CC(=O)O)CC2)NC(=O)[C@H](CCCNC(N)=O)NC1=O [UPAR-450, Pent-[Cys-Cit-Lys(DOTA)-Tyr-Ocf-Pro-Hyp-Ile-Nva-Cys]-NH2] (Pentanoyl-C[Cit]K(DOTA)Y[Phe(2-Cl)]P[Hyp]I[Nva]C-NH2; disulfide 1-10)
≤ 10 | 1.58 to 10 | CC[C@@H]1NC(=O)[C@H]([C@@H](C)CC)NC(=O)[C@@H](C)NC(=O)[C@@H]2CCCN2C(=O)[C@H](Cc2ccccc2)NC(=O)[C@H](Cc2ccc(O)cc2)NC(=O)[C@H](CCC(N)=O)NC(=O)[C@H](CCCNC(N)=O)NC(=O)[C@@H](NC(=O)CCC(C)C)CSSC[C@@H](C(N)=O)NC1=O [UPAR-451, iHex-[Cys-Cit-Gln-Tyr-Phe-Pro-ala-Ile-Abu-Cys]-NH2] ({Pentanoyl(4-Me)}-C[Cit]QYFP[dA]I[Abu]C-NH2; disulfide 1-10)
≤ 10 | < 1.58 | CC[C@H](C)[C@@H]1NC(=O)C(C)(C)NC(=O)[C@@H]2CCCN2C(=O)[C@H](Cc2ccccc2)NC(=O)[C@H](Cc2ccc(O)cc2)NC(=O)[C@H](CCCCNC(=O)CN2CCN(CC(=O)O)CCN(CC(=O)O)CCN(CC(=O)O)CC2)NC(=O)[C@H](CCCNC(N)=O)NC(=O)[C@@H](NC(=O)CCC(C)C)CSSC[C@@H](C(N)=O)NC(=O)[C@H](CC(C)C)NC1=O [UPAR-452, iHex-[Cys-Cit-Lys(DOTA)-Tyr-Phe-Pro-Aib-Ile-Leu-Cys]-NH2] ({Pentanoyl(4-Me)}-C[Cit]K(DOTA)YFP[Aib]ILC-NH2; disulfide 1-10)
≤ 10 | 1.58 to 10 | CC(C)CCC(=O)N[C@H]1CSSC[C@@H](C(N)=O)NC(=O)[C@H](CC(C)C)NC(=O)[C@H](C2CCC2)NC(=O)[C@@H](C)NC(=O)[C@@H]2CCCN2C(=O)[C@H](Cc2ccccc2)NC(=O)[C@H](Cc2ccc(O)cc2)NC(=O)[C@H](CCC(N)=O)NC(=O)[C@H](CCCNC(N)=O)NC1=O [UPAR-453, iHex-[Cys-Cit-Gln-Tyr-Phe-Pro-ala-Cbg-Leu-Cys]-NH2] ({Pentanoyl(4-Me)}-C[Cit]QYFP[dA][Gly(cBu)]LC-NH2; disulfide 1-10)
≤ 10 | < 1.58 | CCCCC(=O)N[C@H]1CSSC[C@@H](C(N)=O)NC(=O)[C@H](CCC)NC(=O)[C@H]([C@@H](C)CC)NC(=O)[C@@H]2C[C@@H](O)CN2C(=O)[C@@H]2CCCN2C(=O)[C@H](Cc2ccccc2)NC(=O)[C@H](Cc2ccc(O)cc2)NC(=O)[C@H](CCC(N)=O)NC(=O)[C@H](Cc2ccc(O)cc2)NC1=O [UPAR-454, Pent-[Cys-Tyr-Gln-Tyr-Phe-Pro-Hyp-Ile-Nva-Cys]-NH2] (Pentanoyl-CYQYFP[Hyp]I[Nva]C-NH2; disulfide 1-10)
≤ 10 | < 1.58 | CC[C@H](C)[C@@H]1NC(=O)[C@@H]2C[C@@H](O)CN2C(=O)[C@@H]2CCCN2C(=O)[C@H](Cc2ccccc2)NC(=O)[C@H](Cc2ccc(O)cc2)NC(=O)[C@H](CC(=O)O)NC(=O)[C@H](CCCNC(=N)N)NC(=O)[C@@H](NC(=O)CCC(C)C)CSSC[C@@H](C(N)=O)NC(=O)[C@H](CC(C)C)NC1=O [UPAR-458, iHex-[Cys-Arg-Asp-Tyr-Phe-Pro-Hyp-Ile-Leu-Cys]-NHz] ({Pentanoyl(4-Me)}-CRDYFP[Hyp]ILC-NH2; disulfide 1-10)

SMILES | IC50 [1] [nM] | Kd (human uPAR (uPAR-Fc)) [nM]
CCCCOC(=O)N[C@H]1CSSC[C@@H](C(N)=O)NC(=O)[C@H](CCC)NC(=O)[C@H]([C@@H](C)CC)NC(=O)[C@@H]2C[C@@H](O)CN2C(=O)[C@@H]2C[C@H](F)CN2C(=O)[C@H](Cc2ccccc2)NC(=O)[C@H](Cc2ccc(O)c(O)c2)NC(=O)[C@H](CCCCNC(=O)CC[C@H](C(=O)O)N2CCN(CC(=O)O)CCN(CC(=O)O)CC2)NC(=O)[C@H]([C@@H](C)O)NC1=O [UPAR-444, Butoc-[Cys-Thr-Lys(NODAGA)-Dopa-Phe-4Cfp-Hyp-Ile-Nva-Cys]-NH2] (Butoxycarbonyl-CTK(X5)[Dopa]F[Pro(cis-4-F)][Hyp]I[Nva]C-NH2; disulfide 1-10) | ≤ 10 | < 1.58
CCCCOC(=O)N[C@H]1CSSC[C@@H](C(N)=O)NC(=O)[C@H](CCC)NC(=O)[C@H]([C@@H](C)CC)NC(=O)[C@@H]2C[C@@H](O)CN2C(=O)[C@@H]2C[C@H](F)CN2C(=O)[C@H](Cc2ccccc2)NC(=O)[C@H](Cc2ccc(O)cc2)NC(=O)[C@H](CNC(=O)CN2CCN(CC(=O)O)CCN(CC(=O)O)CCN(CC(=O)O)CC2)NC(=O)[C@H]([C@@H](C)O)NC1=O [UPAR-455, Butoc-[Cys-Thr-Dap(DOTA)-Tyr-Phe-4Cfp-Hyp-Ile-Nva-Cys]-NH2] (Butoxycarbonyl-CT[Dap](DOTA)YF[Pro(cis-4-F)][Hyp]I[Nva]C-NH2; disulfide 1-10) | ≤ 10 | < 1.58
CCCCOC(=O)N[C@H]1CSSC[C@@H](C(N)=O)NC(=O)[C@H](CCC)NC(=O)[C@H]([C@@H](C)CC)NC(=O)[C@@H]2C[C@@H](O)CN2C(=O)[C@@H]2C[C@H](F)CN2C(=O)[C@H](Cc2ccccc2)NC(=O)[C@H](Cc2ccc(O)c(O)c2)NC(=O)[C@H](CCNC(=O)CN2CCN(CC(=O)O)CCN(CC(=O)O)CCN(CC(=O)O)CC2)NC(=O)[C@H]([C@@H](C)O)NC1=O [UPAR-456, Butoc-[Cys-Thr-Dab(DOTA)-Dopa-Phe-4Cfp-Hyp-Ile-Nva-Cys]-NH2] (Butoxycarbonyl-CT[Dab](DOTA)[Dopa]F[Pro(cis-4-F)][Hyp]I[Nva]C-NH2; disulfide 1-10) | ≤ 10 | < 1.58
CCCCOC(=O)N[C@H]1CSSC[C@@H](C(N)=O)NC(=O)[C@H](CCC)NC(=O)[C@H]([C@@H](C)CC)NC(=O)[C@@H]2C[C@@H](O)CN2C(=O)[C@@H]2C[C@H](F)CN2C(=O)[C@H](Cc2ccccc2)NC(=O)[C@H](Cc2ccc(O)c(O)c2)NC(=O)[C@H](CCCCNC(=O)[C@@H](CC(=O)O)NC(=O)CN2CCN(CC(=O)O)CCN(CC(=O)O)CCN(CC(=O)O)CC2)NC(=O)[C@H]([C@@H](C)O)NC1=O [UPAR-459, Butoc-[Cys-Thr-Lys(DOTA-asp)-Dopa-Phe-4Cfp-Hyp-Ile-Nva-Cys]-NH2] (Butoxycarbonyl-CTK([dD-DOTA])[Dopa]F[Pro(cis-4-F)][Hyp]I[Nva]C-NH2; disulfide 1-10) | ≤ 10 | < 1.58
